Structures can show the parent of a compound that is named as a salt. Where two headings read alike, the source gives them in different places.
Columns and labels:
[1] = tested on: Micrococcus luteus PCl; experiment: In vitro MIC, Agar Well Diffusion Method; format: cell-based; conditions: Micrococcus luteus, read-out: In Vitro MIC
Method: (§1) In vitro antimicrobial activity was determined in BBL seed agar. Serial dilutions of the test compound were pipetted into agar wells (80 μL per well). […] For reference, see A. H. Litton, Antibiotics: Assessment of Antimicrobial Activity and Resistance, Academic Press, New York, pages 19-30 (1983).

[2] = tested on: Escherichia coli 1269B; experiment: In vitro MIC, Agar Well Diffusion Method; format: cell-based; conditions: Escherichia coli, 1269B, read-out: In Vitro MIC
Method: as §1

[3] = tested on: Serratia marcescens SM; experiment: In vitro MIC, Agar Well Diffusion Method; format: cell-based; conditions: Serratia marcescens, read-out: In Vitro MIC
Method: as §1

[4] = tested on: Pseudomonas aeruginosa 56; experiment: In vitro MIC, Agar Well Diffusion Method; format: cell-based; conditions: Pseudomonas aeruginosa, 56, read-out: In Vitro MIC
Method: as §1

[5] = tested on: Streptococcus faecium ATCC 8043; experiment: In vitro MIC, Agar Well Diffusion Method; format: cell-based; conditions: Enterococcus faecium, ATCC8043, read-out: In Vitro MIC
Method: as §1

[6] = tested on: Proteus vulgaris 101N; experiment: In vitro MIC, Agar Well Diffusion Method; format: cell-based; conditions: Proteus vulgaris, 101N, read-out: In Vitro MIC
Method: as §1

[7] = tested on: Klebsiella pneumoniae 369; experiment: In vitro MIC, Agar Well Diffusion Method; format: cell-based; conditions: Klebsiella pneumoniae, 369, read-out: In Vitro MIC
Method: as §1

[8] = tested on: Pseudomonas aeruginosa B; experiment: In vitro MIC, Agar Well Diffusion Method; format: cell-based; conditions: Pseudomonas aeruginosa, read-out: In Vitro MIC
Method: as §1

[9] = tested on: Enterobacter cloacae 2952B; experiment: In vitro MIC, Agar Well Diffusion Method; format: cell-based; conditions: Enterobacter cloacae, 2952B, read-out: In Vitro MIC
Method: as §1

[10] = tested on: Streptococcus 82; experiment: In vitro MIC, Agar Well Diffusion Method; format: cell-based, Streptococcus aureus; conditions: Streptococcus, 82, read-out: In Vitro MIC
Method: as §1

[11] = tested on: Streptococcus faecalis ATCC 29212; experiment: In vitro MIC, Broth Dilution Method; format: cell-based; conditions: Enterococcus faecalis
Method: (§2) The diluted agents prepared in Mueller-Hinton broth were dispensed from a Dynatech MIC 2000 machine, in 100 microliter (μL) volumes into 96 well trays and used immediately or frozen at -10° to -70° C. until needed. Using a Dynatech inoculator and inoculum trays, 1.5 μL of a 10^-2 dilution of an overnight culture was added to each well of the tray. The tops of the trays were then sealed with tape, and the trays were incubated overnight at 37° C. and then examined with a viewer. The lowest concentration at which no growth was observed was considered to be the minimum inhibitory concentration (MIC).

[12] = tested on: Staphylococcus aureus ATCC 29213; experiment: In vitro MIC, Broth Dilution Method; format: cell-based
Method: as §2

[13] = tested on: Proteus mirabilis 2; experiment: In vitro MIC, Broth Dilution Method; format: cell-based
Method: as §2

[14] = tested on: Enterobacter cloacae 5699; experiment: In vitro MIC, Broth Dilution Method; format: cell-based
Method: as §2

[15] = tested on: Serratia marcescens SM; experiment: In vitro MIC, Broth Dilution Method; format: cell-based; conditions: Serratia marcescens, read-out: In Vitro MIC
Method: as §2

[16] = tested on: Proteus vulgaris ATCC 6380; experiment: In vitro MIC, Broth Dilution Method; format: cell-based
Method: as §2

[17] = tested on: Escherichia coli TEM-1; experiment: In vitro MIC, Broth Dilution Method; format: cell-based; conditions: TEM1, read-out: In Vitro MIC
Method: as §2

[18] = tested on: Klebsiella pneumoniae A; experiment: In vitro MIC, Broth Dilution Method; format: cell-based; conditions: read-out: In Vitro MIC
Method: as §2

[19] = tested on: Enterobacter cloacae P99; experiment: In vitro MIC, Broth Dilution Method; format: cell-based; conditions: P99, read-out: In Vitro MIC
Method: as §2

[20] = tested on: Escherichia coli 4; experiment: In vitro MIC, Broth Dilution Method; format: cell-based
Method: as §2

[21] = tested on: Pseudomonas aeruginosa ATCC 27853; experiment: In vitro MIC, Broth Dilution Method; format: cell-based
Method: as §2

[22] = tested on: Streptococcus pneumoniae 6301; experiment: In vitro MIC, Broth Dilution Method; format: cell-based
Method: as §2

[23] = tested on: Pseudomonas aeruginosa Stone 130; experiment: In vitro MIC, Broth Dilution Method; format: cell-based; conditions: STONE130; Broth Dilution Method; Pseudomonas aeruginosa Stone 130; read-out: In Vitro MIC
Method: as §2

[24] = tested on: Staphylococcus aureus Smith; experiment: In vitro MIC, Broth Dilution Method; format: cell-based; conditions: read-out: In Vitro MIC
Method: as §2

[25] = tested on: Proteus mirabilis 90; experiment: In vitro MIC, Broth Dilution Method; format: cell-based
Method: as §2

[26] = tested on: Citrobacter freundii BS-16; experiment: In vitro MIC, Broth Dilution Method; format: cell-based; conditions: Citrobacter freundii, BS16, read-out: In Vitro MIC
Method: as §2

[27] = Proteus mirabilis, 2, read-out: In Vitro MIC
[28] = Enterobacter cloacae, 5699, read-out: In Vitro MIC
[29] = Escherichia coli, 4, read-out: In Vitro MIC
[30] = ATCC29212, Broth Dilution Method, Streptococcus faecalis ATCC 29212, read-out: In Vitro MIC
[31] = ATCC29213, Broth Dilution Method, Staphylococcus aureus ATCC 29213, read-out: In Vitro MIC
[32] = ATCC6380, Broth Dilution Method, Proteus vulgaris ATCC 6380, read-out: In Vitro MIC
[33] = Broth Dilution Method, Klebsiella pneumoniae A
[34] = Broth Dilution Method, Streptococcus pneumoniae 6301, read-out: In Vitro MIC

| SMILES | MIC [13, 27] [mg/L] | MIC [14, 28] [mg/L] | MIC [15] [mg/L] | MIC [17] [mg/L] | MIC [19] [mg/L] | MIC [20, 29] [mg/L] | MIC [23] [mg/L] | MIC [11, 30] [mg/L] | MIC [12, 31] [mg/L] | MIC [16, 32] [mg/L] | MIC [18, 33] [mg/L] | MIC [26] [mg/L] | MIC [22, 34] [mg/L] | other results |
| --- | --- | --- | --- | --- | --- | --- | --- | --- | --- | --- | --- | --- | --- | --- |
| CCn1cc(C(=O)[O-])c(=O)c2cc(F)c(N3CCN(C=N[C@@H]4C(=O)N(S(=O)(=O)[O-])[C@@H]4COC(N)=O)CC3)cc21.[Na+].[Na+] [Compound F, (2S-cis)-7-[4-[[[2-[[(Aminocarbonyl)oxy]methyl]-4-oxo-1-sulfo-3-azetidinyl]imino]methyl]-1-piperazinyl]-1-ethyl-6-fluoro-1,4-dihydro-4-oxo-3-quinolinecarboxylic acid disodium salt] | 0.063 | 0.063 | 0.063 | 0.063 | 0.125 | 0.125 |  |  |  |  |  |  |  | MIC [1]: 500 mg/L; MIC [2]: 7.8 mg/L; MIC [3]: 62.5 mg/L; MIC [4]: 7.8 mg/L; MIC [5]: 500 mg/L; MIC [6]: 1.95 mg/L; MIC [7]: 3.9 mg/L; MIC [8]: 7.8 mg/L; MIC [9]: 31.3 mg/L; MIC [10]: 31.3 mg/L; MIC ([11]; ATCC29212, read-out: In Vitro MIC): 4 mg/L; MIC ([12]; Staphylococcus aureus, ATCC29213, read-out: In Vitro MIC): 2 mg/L; MIC ([16]; Proteus vulgaris, ATCC6380, read-out: In Vitro MIC): 0.031 mg/L; MIC ([18]; Klebsiella pneumoniae): 0.125 mg/L; MIC ([21]; Pseudomonas aeruginosa, ATCC27853, read-out: In Vitro MIC): 2 mg/L; MIC ([22]; Streptococcus pneumoniae, 6301, read-out: In Vitro MIC): 8 mg/L |
| CCn1cc(C(=O)O)c(=O)c2cc(F)c(N3CCCN(C=N[C@@H]4C(=O)N5[C@@H]4SC(C)(C)[C@@H]5C(=O)O)CC3)nc21 [Compound K, [2S-(2α,5α,6β)]-7-[4-[[2-Carboxy-3,3-dimethyl-7-oxo-4-thia-1-azabicyclo[3.2.0]hept-6-yl)-imino]methyl]hexahydro-1H, 1,4-diazepin-1-yl]-1-ethyl-6-fluoro-1,4-dihydro-4-oxo-1,8-naphthyridine--carboxylic acid disodium salt] | 4 | 4 | 4 | 1 | 1 |  | 8 | 128 | 16 | 2 | 2 | 4 | 2 | MIC ([24]; Broth Dilution Method, Staphylococcus aureus Smith): 2 mg/L; MIC ([25]; Broth Dilution Method, Proteus mirabilis 90, read-out: In Vitro MIC): 8 mg/L; MIC ([20]; Broth Dilution Method, Escherichia coli 4, read-out: In Vitro MIC): 2 mg/L |
| CCn1cc(C(=O)O)c(=O)c2cc(F)c(N3CCN(C=N[C@@H]4C(=O)N5C(C(=O)O)=C(CSc6nc(=O)c(=O)[nH]n6C)CS[C@H]45)CC3)cc21 [Compound J, [6R-[6α,7β(Z)]]-7-[4-[[[2-Carboxy-3-[[(1,2,5,6-tetrahydro-2-methyl-5,6-dioxo-1,2,4-triazin-3-yl)thio]methyl]-8-oxo-5-thia-1-azabicyclo[4.2.0]-oct-2-en-7-yl]-imino]methyl]-1-piperazinyl]-ethyl-6-fluoro-1,4-dihydro-4-oxo-3-quinolinecarboxylic acid disodium salt] |  |  | 0.5 | 0.25 | 0.5 | 0.25 | 8 | 0.25 | 2 | 0.125 | 0.5 | 0.5 | 2 | MIC ([24]; Staphylococcus aureus): 1 mg/L; MIC ([13]; Broth Dilution Method, Proteus mirabilis 2, read-out: In Vitro MIC): 0.5 mg/L; MIC ([25]; Proteus mirabilis, 90, read-out: In Vitro MIC): 1 mg/L; MIC ([14]; Broth Dilution Method, Enterobacter cloacae 5699, read-out: In Vitro MIC): 0.25 mg/L; MIC ([21]; ATCC27853, Broth Dilution Method, Pseudomonas aeruginosa ATCC 27853, read-out: In Vitro MIC): 16 mg/L |
